Values joined by “and” are separate entries in the source; they are usually repeats but may differ in a detail not shown here. Equal values may be shown once. Read-outs that look alike come from different tables or passages of the source.
How the values were obtained:
adult H. polygyrus = type: cell-based, Heligmosomoides polygyrus; settings: aerobic; for effect on adult H. polygyrus viability: 10 µM, 24-h exposure; for Percent Worms Affected: affected = score equal to or lower than 1.5; for Worm viability score of individual worm, scale from 0 (dead) to 3 (motile): single worms
Experimental: After either 24- or 72 h chemical treatment, worm viability was manually scored by an examiner using a scale from 0 (dead) to 3 (motile); DMSO was used as a negative control in both 24- and 72 h treatments. The percentage of affected worms (i.e., worms with a score equal to or lower than 1.5) in each biological replicate is shown; data are from two biological replicates. Within each boxplot, black horizontal lines denote group medians, boxes span from the 25th to the 75th percentile of each group’s distribution, and whiskers extend to the maximum and minimum values.
The eleven benzimidazole derivatives were tested at a concentration of 10 µM under aerobic conditions against L3 and adult H. polygyrus.
For the larval assay, mice feces were collected 2 weeks post-infection and eggs were isolated. The eggs were left on agar at room temperature in the dark for eight to 10 days to allow them to develop into L3. Next, 30–40 L3 were incubated (37 °C, 5% CO2) in the culture medium (RPMI 1640 medium + 1% pen./strep. + 5% amphotericin B) containing the derivatives in 96-well plate (Corning, USA) reaching a final volume of 250 µL for 24 h. For the adult drug screening assay, female NMRI mice were euthanized with CO2 and adult H. polygyrus were dissected out of the intestines. Subsequently, three worms were exposed to the culture medium (RPMI 1640 medium + 1% pen./strep. + 5% amphotericin B) with the derivatives (2 mL) in a 24-well plate (Corning, USA) for either 24 or 72 h. DMSO ( < 1%) served as a negative control in both assays. All conditions were tested in duplicates. Finally, 80 µL of hot water ( ~ 80 °C) for L3 and 500 µL of hot water (~80 °C) for adults were added to the wells to check for their viability under a microscope (Carl Zeiss, Germany). Larvae were categorized as being either alive or dead, depending on whether they moved or not. […] The whole experiment was performed two times i.e., two independent biological replicates for both life stages (L3s and adults) and exposure times (24 and 72 h).

L1 wild-type C. elegans = assay: whole plant or invertebrate; settings: Caenorhabditis elegans, 15 h, read-out: C. elegans KCN Survival Assay LC50
[1] = adult H. polygyrus, replicate 1, 24 hours after treatment
[2] = adult H. polygyrus, replicate 2, 24 hours after treatment
[3] = adult H. polygyrus, in vitro, 24 hours, per biological replicate
[4] = adult H. polygyrus, in vitro, 24 hours
[5] = adult H. polygyrus, in vitro, 72 hours, per biological replicate
[6] = replicate 1, 24 hours after treatment, worms with score equal to or lower than 1.5
[7] = replicate 2, 24 hours after treatment, worms with score equal to or lower than 1.5
[8] = adult H. polygyrus, in vitro, 72 hours

Compound | effect on adult H. polygyrus viability (adult H. polygyrus) | Percent Worms Affected (adult H. polygyrus; [1]) [%] | Percent Worms Affected (adult H. polygyrus; [2]) [%] | Percent Worms Affected (worms with a score equal to or lower than 1.5) (adult H. polygyrus; [3]) | Worm viability score of individual worm, scale from 0 (dead) to 3 (motile) (adult H. polygyrus; [4]) | Percent Worms Affected (worms with a score equal to or lower than 1.5) (adult H. polygyrus; [5]) | # of Worms Affected (adult H. polygyrus; [6]) | # of Worms Affected (adult H. polygyrus; [7]) | Worm viability score of individual worm, scale from 0 (dead) to 3 (motile) (adult H. polygyrus; [8]) | LC50 (L1 wild-type C. elegans) [µM] | # of Worms Affected (adult H. polygyrus; [5])
Clc1ccc(SCCCCn2cnc3ccccc32)cc1 [Compound 7925515] | potent effects | 100 | 50 | 50% and 100% | 1.5 | 100% | 6 | 4 |  |  | 
Brc1ccc(Cn2cnc3ccccc32)cc1 [Compound 5542661] |  |  |  | 17% and 0% | 2.5 and 2 | 17% and 83% |  |  | 1.5 |  | 
COc1cc2c(cc1OC)C(c1ccc(-c3ccc(Cl)c(Cl)c3)o1)=NCC2 [NPD3577] |  |  |  |  |  |  |  |  |  | 16 | 
CCn1c(C(C)c2ccc(CC(C)C)cc2)nc2ccccc21 (centres unmarked) [STK951902] | potent effects | 67 | 83 | 67% and 83% | 2 and 1 and 1.5 | 100% and 67% | 4 | 5 |  |  | 
CC(C)(C)c1ccc(CCOc2ncnc3ccccc23)cc1 [Fenazaquin, reference compound] |  |  |  |  |  |  |  |  |  | 0.5 | 
Clc1ccccc1OCCCCn1cnc2ccccc21 [Compound 7925804] | potent effects |  |  | 60% and 67% | 1.5 and 2 | 100% and 83% | 2 | 4 | 1.5 |  | 5
Cc1nc2ccccc2n1Cc1ccccc1Cl [Compound 6707368] |  | 0 | 14 | 0% and 14% | 2.5 | 29% and 100% | 0 | 1 | 1.5 |  | 
Cc1cc(O)c2c(c1)O[C@@]1(C)CC[C@H]3C(C)(C)CCC[C@]34CO[C@@H]2[C@H]41 [Siccanin] |  |  |  |  |  |  |  |  |  | 6.3 | 
Cc1nc2ccccc2n1Cc1ccc(Br)cc1 [Compound 5567167] |  | 33 | 17 | 33% and 17% | 2.5 and 2 and 1.5 | 83% and 100% | 2 | 1 | 1.5 |  | 
CC(C)Cc1ccc(C(C)c2nc3ccccc3n2C(C)C)cc1 (centres unmarked) [STK951903] |  | 67 | 14 | 67% and 14% | 1.5 and 2.5 and 2 | 100% | 4 | 1 |  |  | 6
Clc1ccc(Cn2cnc3ccccc32)c(Cl)c1 [Compound 6750659] |  | 33 | 17 | 33% and 17% | 1.5 and 2.5 | 33% and 100% | 2 | 1 | 1.5 |  | 
COc1cc2c(cc1OC)C(/C=C/c1ccc(N(C)C)cc1)=NCC2 [NPD6303] |  |  |  |  |  |  |  |  |  | 32.2 | 
COc1cc2c(cc1OC)C(C(C)c1ccc(CC(C)C)cc1)=NCC2 (centres unmarked) [NPD10504] |  |  |  |  |  |  |  |  |  | 15.6 | 

Reference: publication PMC11079024, “Identification of a family of species-selective complex I inhibitors as potential anthelmintics” (Nature Communications, 2024)
